# Measurements published in publication PMC9676650, “Binding pocket stabilization by high-throughput screening of yeast display libraries” (Frontiers in Molecular Biosciences, 2022).
# Substitutions are numbered along the chain they refer to.
# What was measured:
# FKBP51 variant D68Y = target: T1, FKBP51 variant D68Y (Homo sapiens, UniProt Q13451, D68Y); test: Competitive fluorescence polarization assay, FKBP51 D68Y; details: 80-100 nM FKBP51 D68Y; 1 nM FK [431]-TA tracer; 30 min room temperature; fitted as KI in competitive binding model; read-out: Kd-value (ligand binding constant, competitive fluorescence polarization)
# T1 construct: made in house; host or cells: E. coli BL21 (DE3)
# T1 sequence (Q13451 1-140 D68Y): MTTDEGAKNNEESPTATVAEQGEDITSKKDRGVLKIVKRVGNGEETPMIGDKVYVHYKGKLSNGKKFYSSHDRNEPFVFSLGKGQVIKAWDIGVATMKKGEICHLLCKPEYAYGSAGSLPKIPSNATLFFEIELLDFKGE
# Excerpt: (§1) All ligands and tracers used for fluorescence polarization assays had purities of more than 95%. The following ligands and tracers were used for fluorescence polarization and FACS screening experiments: •SAFit-FL tracer (1): Fluorescein conjugated analog of the iFit ligand class. •Mcyc-TA tracer (2): TAMRA conjugated macrocyclic ligand (5). •FK [431]-TA tracer (3): TAMRA conjugated FK [431] ligand (6). •SAFit1 ligand (4): analog of the iFit ligand class. •macrocyclic ligand (5):macrocyclic analog of the SAFit class ligands. •FK [431] ligand (6):bicyclic analog of the immunosuppressive drug FK506
# (§2) In order to rule out artifacts introduced by the fluorophore of the tracers, competitive fluorescence polarization assays were carried out. Therefore, a serial dilution of an FK [431] ligand (6), SAFit1 (4), or a macrocyclic ligand 5) (Supplementary Figure S8) in assay buffer was placed in a 384-well assay plate. To the compounds, a mixture of the respective protein (20 nM WT, 10–40 nM G64S or 80–100 nM D68Y) and 1 nM of the FK [431]-TA in assay buffer was added. After incubating for 30 min at room temperature, the fluorescence polarization was measured. […]
# FKBP51 WT = target: T2, FKBP51 WT (Homo sapiens, UniProt Q13451); test: Competitive fluorescence polarization assay, FKBP51 WT; details: 20 nM FKBP51 WT; 1 nM FK [431]-TA tracer; 30 min room temperature; fitted as KI in competitive binding model; read-out: Kd-value (ligand binding constant, competitive fluorescence polarization)
# T2 construct: made in house; host or cells: E. coli BL21 (DE3)
# T2 sequence (Q13451 1-140): T1 sequence (Q13451 1-140 D68Y) with Y68D
# Excerpt: as §1, §2
# FKBP51 variant G64S = target: T3, FKBP51 variant G64S (Homo sapiens, UniProt Q13451, G64S); test: Competitive fluorescence polarization assay, FKBP51 G64S; details: 10-40 nM FKBP51 G64S; 1 nM FK [431]-TA tracer; 30 min room temperature; fitted as KI in competitive binding model; read-out: Kd-value (ligand binding constant, competitive fluorescence polarization)
# T3 construct: made in house; host or cells: E. coli BL21 (DE3)
# T3 sequence (Q13451 1-140 G64S): T1 sequence (Q13451 1-140 D68Y) with G64S, Y68D
# Excerpt: as §1, §2
smiles,measurement,setting,value
COc1ccc(CC[C@@H](OC(=O)[C@@H]2CCCCN2C(=O)[C@H](c2cc(OC)c(OC)c(OC)c2)C2CCCCC2)c2cccc(OCC(=O)O)c2)cc1OC [SAFit1],Kd,FKBP51 variant D68Y,0.2 ± 0.5 nM
same,Kd,FKBP51 WT,4.8 ± 0.4 nM
same,Kd,FKBP51 variant G64S,0.5 ± 0.2 nM
